Experimental data as given in US20250230155A1 (Vanderbilt University, priority 2021, published 2025).

Target: T1, human mAChR M4 (Homo sapiens, UniProt P08173)
T1 construct: expressed in transfected cells
T1 sequence (P08173 1-479): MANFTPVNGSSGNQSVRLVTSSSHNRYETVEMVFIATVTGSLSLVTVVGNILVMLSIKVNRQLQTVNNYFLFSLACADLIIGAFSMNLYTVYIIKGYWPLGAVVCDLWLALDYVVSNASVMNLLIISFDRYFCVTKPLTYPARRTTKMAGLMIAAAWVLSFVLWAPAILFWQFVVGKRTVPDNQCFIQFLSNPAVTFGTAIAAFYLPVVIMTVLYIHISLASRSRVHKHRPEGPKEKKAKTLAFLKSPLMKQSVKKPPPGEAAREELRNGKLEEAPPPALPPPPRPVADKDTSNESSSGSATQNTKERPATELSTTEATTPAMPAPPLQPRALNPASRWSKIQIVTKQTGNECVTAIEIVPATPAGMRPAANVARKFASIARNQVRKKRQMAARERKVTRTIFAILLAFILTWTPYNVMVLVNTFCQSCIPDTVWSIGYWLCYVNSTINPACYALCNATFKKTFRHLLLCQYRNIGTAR
Assay: mAChR M4 cell-based functional assay (calcium mobilization, CHO-K1 hM4-Gqi5 cells)
Conditions: for Emax at 30 µM: CHO-K1, % ACh maximum at 30 μM, human M4; for EC50: positive allosteric modulator activity, increase in the EC20 acetylcholine response, CHO-K1 hM4-Gqi5 cells, read-out: Human M4 EC50
In short: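 Fluorescent calcium read-out (Fluo-4 AM, FDSS, 1 Hz) in hM4-Gqi5 CHO-K1 cells, 11-point 1:3 compound series. Agonism scored on compound addition, PAM activity as increase of the 144 s EC20 acetylcholine response, antagonism as decrease of the 230 s EC80 response; four-parameter logistic fits give EC50 and Emax.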

SMILES | Emax at 30 µM | EC50 | Emax (CHO-K1)
Cc1cc(C(=O)NCc2ccc3c(c2)n(C)c(=O)n3C)cnc1N1CCc2ncccc2C1 [compound 158, 6-(7,8-dihydro-5H-1,6-naphthyridin-6-yl)-N-[(1,3-dimethyl-2-oxo-benzimidazol-5-yl)methyl]-5-methyl-pyridine-3-carboxamide] | 68% | 3.64 µM | 
Cc1cc(C#N)cnc1N1CCc2nc(C)c(N3CCOC(C)(C)C3)cc2C1 [Example 377, 6-(3-(2,2-dimethylmorpholino)-2-methyl-7,8-dihydro-1,6-naphthyridin-6(5H)-yl)-5-methylnicotinonitrile] |  | 0.76 µM | 76%
Cc1cc(C(=O)NCc2ccncc2)cnc1N1CCc2ncc(-c3cccnc3F)cc2C1 [compound 178, 6-[3-(2-fluoro-3-pyridyl)-7,8-dihydro-5H-1,6-naphthyridin-6-yl]-5-methyl-N-(4-pyridylmethyl)pyridine-3-carboxamide] | 87% | 0.262 µM | 
Cc1cc(C(=O)NCc2ccc(Cl)nc2)cnc1N1CCc2ncc(-c3cn(C)nc3C)cc2C1 [Example 481, N-((6-chloropyridin-3-yl)methyl)-6-(3-(1,3-dimethyl-1H-pyrazol-4-yl)-7,8-dihydro-1,6-naphthyridin-6(5H)-yl)-5-methylnicotinamide] | 58% | 1.06 µM | 
Cc1cc(C(=O)NC2CC(F)(F)C2)cnc1N1CCc2ncc(-c3cn(C)nc3C)cc2C1 [Example 476, N-(3,3-difluorocyclobutyl)-6-(3-(1,3-dimethyl-1H-pyrazol-4-yl)-7,8-dihydro-1,6-naphthyridin-6(5H)-yl)-5-methylnicotinamide] | 67% | 0.752 µM | 

The next lines start with results.

Emax at 30 µM | EC50 | SMILES | Emax (CHO-K1)
98% | 0.114 µM | Cc1cnc2c(c1)CN(c1nnc(C(=O)Nc3ccncc3)c(C)c1C)CC2 [Example 469, 4,5-dimethyl-6-(3-methyl-7,8-dihydro-1,6-naphthyridin-6(5H)-yl)-N-(pyridin-4-yl)pyridazine-3-carboxamide] | 
63% | 2.15 µM | Cc1c(C#N)nnc(N2CCc3ncc(N4CCOC(c5ccccn5)C4)cc3C2)c1C (stereo not drawn) [Example 380, 4,5-dimethyl-6-(3-(2-(pyridin-2-yl)morpholino)-7,8-dihydro-1,6-naphthyridin-6(5H)-yl)pyridazine-3-carbonitrile] | 
78% | 0.76 µM | Cc1cc(C(=O)NCc2cncs2)cnc1N1CCc2ncccc2C1 [compound 62, 6-(7,8-dihydro-5H-1,6-naphthyridin-6-yl)-5-methyl-N-(thiazol-5-ylmethyl)pyridine-3-carboxamide] | 
83% | 1.25 µM | Cc1c(C#N)nnc(N2CCc3ncc(N4CCOC(c5cccnc5)C4)cc3C2)c1C (stereo not drawn) [Example 388, 4,5-dimethyl-6-(3-(2-(pyridin-3-yl)morpholino)-7,8-dihydro-1,6-naphthyridin-6(5H)-yl)pyridazine-3-carbonitrile] | 
